Experimental data from ChEMBL document CHEMBL3045021, “Synthesis, antibacterial, and antifungal activities of biolabile (E)-1-(4-morpholinophenyl)-3-aryl-prop-2-en-1-ones” (2009).
Activity calls are given as the source filed them. No cut-off for these calls is given here.

Experiments:
Type in all cases: functional
Salmonella typhi [1] = assay: Antimicrobial activity against Salmonella enterica subsp. enterica serovar Typhi at 200 ppm after 24 hr by disk diffusion method; conditions: read-out: IZ
Aspergillus flavus [2] = assay: Antimicrobial activity against Aspergillus flavus at 500 ppm after 72 to 96 hr by disk diffusion method; conditions: read-out: IZ
Mucor [3] = assay: Antimicrobial activity against Mucor at 200 ppm after 72 to 96 hr by disk diffusion method; conditions: read-out: IZ
Salmonella typhi [4] = assay: Antimicrobial activity against Salmonella enterica subsp. enterica serovar Typhi at 100 ppm after 24 hr by disk diffusion method
Shigella flexneri [5] = assay: Antimicrobial activity against Shigella flexneri at 500 ppm after 24 hr by disk diffusion method; conditions: read-out: IZ
Pseudomonas [6] = assay: Antimicrobial activity against Pseudomonas at 200 ppm after 24 hr by disk diffusion method; conditions: read-out: IZ
Shigella flexneri [7] = assay: Antimicrobial activity against Shigella flexneri at 200 ppm after 24 hr by disk diffusion method; conditions: read-out: IZ
Klebsiella pneumoniae [8] = assay: Antimicrobial activity against Klebsiella pneumoniae at 500 ppm after 24 hr by disk diffusion method; conditions: read-out: IZ
Mucor [9] = assay: Antimicrobial activity against Mucor at 100 ppm after 72 to 96 hr by disk diffusion method; conditions: for zone of inhibition at 100 ppm: read-out: IZ
Pseudomonas [10] = assay: Antimicrobial activity against Pseudomonas at 100 ppm after 24 hr by disk diffusion method; conditions: for zone of inhibition at 100 ppm: read-out: IZ
Aspergillus flavus [11] = assay: Antimicrobial activity against Aspergillus flavus at 100 ppm after 72 to 96 hr by disk diffusion method; conditions: for zone of inhibition at 100 ppm: read-out: IZ
Pseudomonas [12] = assay: Antimicrobial activity against Pseudomonas at 500 ppm after 24 hr by disk diffusion method; conditions: read-out: IZ
Streptococcus [13] = assay: Antimicrobial activity against beta-hemolytic Streptococcus at 100 ppm after 24 hr by disk diffusion method; conditions: for zone of inhibition at 100 ppm: read-out: IZ
Staphylococcus aureus [14] = assay: Antimicrobial activity against Staphylococcus aureus at 100 ppm after 24 hr by disk diffusion method
Nannizzia gypsea [15] = assay: Antimicrobial activity against Microsporum gypseum at 200 ppm after 72 to 96 hr by disk diffusion method; conditions: for zone of inhibition at 200 ppm: read-out: IZ
Staphylococcus aureus [16] = assay: Antimicrobial activity against Staphylococcus aureus at 200 ppm after 24 hr by disk diffusion method; conditions: read-out: IZ
Escherichia coli [17] = assay: Antimicrobial activity against Escherichia coli at 100 ppm after 24 hr by disk diffusion method
Streptococcus [18] = assay: Antimicrobial activity against beta-hemolytic Streptococcus at 200 ppm after 24 hr by disk diffusion method; conditions: read-out: IZ
Mucor [19] = assay: Antimicrobial activity against Mucor at 500 ppm after 72 to 96 hr by disk diffusion method; conditions: read-out: IZ
Aspergillus flavus [20] = assay: Antimicrobial activity against Aspergillus flavus at 200 ppm after 72 to 96 hr by disk diffusion method; conditions: read-out: IZ
Nannizzia gypsea [21] = assay: Antimicrobial activity against Microsporum gypseum at 500 ppm after 72 to 96 hr by disk diffusion method; conditions: read-out: IZ
Nannizzia gypsea [22] = assay: Antimicrobial activity against Microsporum gypseum at 100 ppm after 72 to 96 hr by disk diffusion method; conditions: read-out: IZ
Vibrio cholerae [23] = assay: Antimicrobial activity against Vibrio cholerae at 500 ppm after 24 hr by disk diffusion method; conditions: read-out: IZ
Rhizopus [24] = assay: Antimicrobial activity against Rhizopus at 200 ppm after 72 to 96 hr by disk diffusion method; conditions: for zone of inhibition at 200 ppm: read-out: IZ
Klebsiella pneumoniae [25] = assay: Antimicrobial activity against Klebsiella pneumoniae at 200 ppm after 24 hr by disk diffusion method; conditions: read-out: IZ
Salmonella typhi [26] = assay: Antimicrobial activity against Salmonella enterica subsp. enterica serovar Typhi at 500 ppm after 24 hr by disk diffusion method; conditions: read-out: IZ
Klebsiella pneumoniae [27] = assay: Antimicrobial activity against Klebsiella pneumoniae at 100 ppm after 24 hr by disk diffusion method; conditions: for zone of inhibition at 100 ppm: read-out: IZ
Rhizopus [28] = assay: Antimicrobial activity against Rhizopus at 100 ppm after 72 to 96 hr by disk diffusion method
Vibrio cholerae [29] = assay: Antimicrobial activity against Vibrio cholerae at 100 ppm after 24 hr by disk diffusion method; conditions: for zone of inhibition at 100 ppm: read-out: IZ
Shigella flexneri [30] = assay: Antimicrobial activity against Shigella flexneri at 100 ppm after 24 hr by disk diffusion method; conditions: read-out: IZ
Vibrio cholerae [31] = assay: Antimicrobial activity against Vibrio cholerae at 200 ppm after 24 hr by disk diffusion method; conditions: read-out: IZ
Staphylococcus aureus [32] = assay: Antimicrobial activity against Staphylococcus aureus at 500 ppm after 24 hr by disk diffusion method; conditions: read-out: IZ
Escherichia coli [33] = assay: Antimicrobial activity against Escherichia coli at 500 ppm after 24 hr by disk diffusion method; conditions: read-out: IZ
Escherichia coli [34] = assay: Antimicrobial activity against Escherichia coli at 200 ppm after 24 hr by disk diffusion method; conditions: read-out: IZ
Rhizopus [35] = assay: Antimicrobial activity against Rhizopus at 500 ppm after 72 to 96 hr by disk diffusion method; conditions: read-out: IZ
Streptococcus [36] = assay: Antimicrobial activity against beta-hemolytic Streptococcus at 500 ppm after 24 hr by disk diffusion method; conditions: read-out: IZ

Row | Compound | zone of inhibition at 200 ppm (Salmonella typhi [1]) [mm] | zone of inhibition at 500 ppm (Aspergillus flavus [2]) [mm] | zone of inhibition at 200 ppm (Mucor [3]) [mm] | zone of inhibition at 500 ppm (Shigella flexneri [5]) [mm] | zone of inhibition at 200 ppm (Pseudomonas [6]) [mm] | zone of inhibition at 200 ppm (Shigella flexneri [7]) [mm] | zone of inhibition at 500 ppm (Klebsiella pneumoniae [8]) [mm] | zone of inhibition at 500 ppm (Pseudomonas [12]) [mm] | zone of inhibition at 200 ppm (Staphylococcus aureus [16]) [mm] | zone of inhibition at 200 ppm (Streptococcus [18]) [mm] | zone of inhibition at 500 ppm (Mucor [19]) [mm] | zone of inhibition at 200 ppm (Aspergillus flavus [20]) [mm] | zone of inhibition at 500 ppm (Nannizzia gypsea [21]) [mm] | zone of inhibition at 100 ppm (Nannizzia gypsea [22]) [mm] | zone of inhibition at 500 ppm (Vibrio cholerae [23]) [mm] | zone of inhibition at 200 ppm (Klebsiella pneumoniae [25]) [mm] | zone of inhibition at 500 ppm (Salmonella typhi [26]) [mm] | zone of inhibition at 100 ppm (Shigella flexneri [30]) [mm] | zone of inhibition at 200 ppm (Vibrio cholerae [31]) [mm] | zone of inhibition at 500 ppm (Staphylococcus aureus [32]) [mm] | also measured
1 | O=C(/C=C/c1cccc([N+](=O)[O-])c1)c1ccc(N2CCOCC2)cc1 | 12 | 22 | 17 | 22 | 22 | 17 | 22 | 30 | 17 | 17 | 22 | 17 | 22 | 12 | 17 | 17 | 17 | 12 | 12 | 22 | inhibition zone (IZ) (Salmonella typhi [4]): inactive; inhibition zone (IZ) (Mucor [9]): inactive; inhibition zone (IZ) (Pseudomonas [10]): inactive; zone of inhibition at 100 ppm (Aspergillus flavus [11]): 12 mm; inhibition zone (IZ) (Streptococcus [13]): inactive; inhibition zone (IZ) (Staphylococcus aureus [14]): inactive; zone of inhibition at 200 ppm (Nannizzia gypsea [15]): 17 mm; inhibition zone (IZ) (Escherichia coli [17]): inactive; zone of inhibition at 200 ppm (Rhizopus [24]): 17 mm; inhibition zone (IZ) (Klebsiella pneumoniae [27]): inactive; inhibition zone (IZ) (Rhizopus [28]): inactive; inhibition zone (IZ) (Vibrio cholerae [29]): inactive; zone of inhibition at 500 ppm (Escherichia coli [33]): 22 mm; zone of inhibition at 200 ppm (Escherichia coli [34]): 17 mm; zone of inhibition at 500 ppm (Rhizopus [35]): 22 mm; zone of inhibition at 500 ppm (Streptococcus [36]): 22 mm
2 | Cc1ccc(/C=C/C(=O)c2ccc(N3CCOCC3)cc2)cc1 | 17 | 17 | 12 | 30 | 22 | 17 | 30 | 30 | 17 | 17 | 17 | 12 | 17 | 12 | 17 | 17 | 17 | 12 | 12 | 30 | zone of inhibition at 100 ppm (Salmonella typhi [4]; read-out: IZ): 12 mm; zone of inhibition at 100 ppm (Mucor [9]): 12 mm; zone of inhibition at 100 ppm (Pseudomonas [10]): 17 mm; zone of inhibition at 100 ppm (Aspergillus flavus [11]): 12 mm; zone of inhibition at 100 ppm (Streptococcus [13]): 12 mm; inhibition zone (IZ) (Staphylococcus aureus [14]): inactive; inhibition zone (IZ) (Nannizzia gypsea [15]): inactive; inhibition zone (IZ) (Escherichia coli [17]): inactive; inhibition zone (IZ) (Rhizopus [24]): inactive; zone of inhibition at 100 ppm (Klebsiella pneumoniae [27]): 12 mm; zone of inhibition at 100 ppm (Rhizopus [28]; read-out: IZ): 12 mm; zone of inhibition at 100 ppm (Vibrio cholerae [29]): 12 mm; zone of inhibition at 500 ppm (Escherichia coli [33]): 17 mm; zone of inhibition at 200 ppm (Escherichia coli [34]): 12 mm; zone of inhibition at 500 ppm (Rhizopus [35]): 17 mm; zone of inhibition at 500 ppm (Streptococcus [36]): 30 mm
3 | O=C(/C=C/c1ccc(Cl)cc1)c1ccc(N2CCOCC2)cc1 | 17 | 30 | 17 | 22 | 22 | 17 | 30 | 30 | 17 | 17 | 22 | 22 | 22 | 12 | 17 | 22 | 22 | 17 | 17 | 22 | inhibition zone (IZ) (Salmonella typhi [4]): inactive; zone of inhibition at 100 ppm (Mucor [9]): 12 mm; zone of inhibition at 100 ppm (Pseudomonas [10]): 17 mm; inhibition zone (IZ) (Aspergillus flavus [11]): inactive; zone of inhibition at 100 ppm (Streptococcus [13]): 12 mm; zone of inhibition at 100 ppm (Staphylococcus aureus [14]; read-out: IZ): 12 mm; zone of inhibition at 200 ppm (Nannizzia gypsea [15]): 17 mm; zone of inhibition at 100 ppm (Escherichia coli [17]; read-out: IZ): 12 mm; zone of inhibition at 200 ppm (Rhizopus [24]): 17 mm; zone of inhibition at 100 ppm (Klebsiella pneumoniae [27]): 12 mm; inhibition zone (IZ) (Rhizopus [28]): inactive; zone of inhibition at 100 ppm (Vibrio cholerae [29]): 12 mm; zone of inhibition at 500 ppm (Escherichia coli [33]): 17 mm; zone of inhibition at 200 ppm (Escherichia coli [34]): 17 mm; zone of inhibition at 500 ppm (Rhizopus [35]): 30 mm; zone of inhibition at 500 ppm (Streptococcus [36]): 22 mm
